In patent publication US12091393B2, “Small molecule vaccine adjuvant for enhancing or prolonging immune response” (The Regents of the University of California, priority 2018, dated 2024):
Like-named read-outs stand apart in the source and are kept apart here.

How the values were obtained:
NF-κB [1] = assay: Measurement of NF-κB activation using THP1-Blue NF-κB cells (SEAP); type: cell-based; settings: for NF-κB activity (SAR discussion, in words): evaluated in both the presence and absence of LPS; for NF-κB activity when tested alone (in words): compound alone, without LPS
NF-κB [2] = assay: cell-based NF-κB FRET assay; settings: compound + LPS; two point normalized, compound 1 as 200%, LPS (10 ng/mL) as 100%
Description: Site A was assigned the 4-substituent of thiazole ring, site B was the thiazole ring itself, site C was the central amide bond in the structure, site D was the benzene ring bearing 1,4-carboxyl and sulfamoyl group, site E was the sulfonamide functional group and site F was the amide substituent on the sulfamoyl group.

THP-1 cells = assay: Cell viability assay (MTT); type: cell-based; settings: compound 5 μM alone, 18 h, normalized to DMSO as 100%
Experimental: THP-1 cells were plated in 96-well plates (10^5 cells/well) in 100 μL RPMI supplemented with 10% FBS, 100 U/mL penicillin and 100 μg/ml streptomycin. Compounds were dissolved in DMSO at 1 mM stock solution and were further diluted to 10 μM in the assay medium. 100 μL of this solution was added to the cells to obtain a final compound concentration of 5 μM ([…]). After 18 h incubation, a solution of MTT in assay media (0.5 mg/mL) was added to each well and further incubated for 4 to 6 h, followed by addition of cell lysis buffer (15% w/v SDS and 0.12% v/v 12N HCl aqueous solution), incubated overnight, and then absorbance measured at 570 nm using 650 nm as reference using Tecan Infinite M200 plate reader.

[3] = compound 5 μM + LPS, 20 h, two point normalized, compound 1 as 200%, LPS (10 ng/mL) as 100%, read-out: NF-κB SEAP Compound + LPS % Activation
[4] = compound 5 μM alone, 20 h, two point normalized, compound 1 as 200%, LPS or DMSO as 100%, read-out: NF-κB SEAP Compound alone % Activation

Compound	activity at 5 µM (NF-κB [1]; [3])	activity at 5 µM (NF-κB [1]; [4])	NF-κB activity (SAR discussion, in words) (NF-κB [1])	NF-κB FRET Compound + LPS % Activation (NF-κB [2])	MTT Compound alone % Viability (THP-1 cells)	NF-κB SEAP Compound + LPS % Activation (NF-κB [1]; compound 5 μM + LPS, 20 h, two point normalized, compound 1 as 200%, LPS (10 ng/mL) as 100%)	NF-κB SEAP Compound alone % Activation (NF-κB [1]; compound 5 μM alone, 20 h, two point normalized, compound 1 as 200%, LPS or DMSO as 100%)	NF-κB activity when tested alone (in words) (NF-κB [1])
Cc1ccc(-c2csc(NC(=O)c3ccc(S(=O)(=O)N4CCCCC4)cc3)n2)c(C)c1 [Compound 12m, N-(4-(2,4-dimethylphenyl)thiazol-2-yl)-4-(piperidin-1-ylsulfonyl)benzamide]	86.7%	98.5%	inactive	161.33%	101.40%	–	–	–
Cc1ccc(-c2csc(NC(=O)c3ccc(S(=O)(=O)N4CCCCC4)cc3)n2)cc1C [Compound 12n, N-(4-(3,4-dimethylphenyl)thiazol-2-yl)-4-(piperidin-1-ylsulfonyl)benzamide]	98%	98.7%	inactive	128.01%	97.59%	–	–	–
Cc1cc(C)cc(-c2csc(NC(=O)c3ccc(S(=O)(=O)N4CCCCC4)cc3)n2)c1 [Compound 12o, N-(4-(3,5-dimethylphenyl)thiazol-2-yl)-4-(piperidin-1-ylsulfonyl)benzamide]	93.2%	98.2%	inactive	170.36%	92.91%	–	–	–
Cc1ccc2c(c1)-c1nc(NC(=O)c3ccc(S(=O)(=O)N4CCCCC4)cc3)sc1C2 [Compound 12r, N-(5-methyl-8H-indeno[1,2-d]thiazol-2-yl)-4-(piperidin-1-ylsulfonyl)benzamide]	95.6%	102%	weakly active	129.01%	82.46%	–	–	–
Cc1ccc2c(c1)-c1nc(NC(=O)c3ccc(S(=O)(=O)N4CCCCC4)cc3)sc1CC2 [Compound 12s, N-(8-methyl-4,5-dihydronaphtho[1,2-d]thiazol-2-yl)-4-(piperidin-1-ylsulfonyl)benzamide]	141%	128%	weakly active	159.62%	102.16%	–	–	–
C#Cc1ccc(C)c(-c2csc(NC(=O)c3ccc(S(=O)(=O)N4CCCCC4)cc3)n2)c1 [Compound 12t, N-(4-(5-ethynyl-2-methylphenyl)thiazol-2-yl)-4-(piperidin-1-ylsulfonyl)benzamide]	90%	101%	inactive	88.20%	82.42%	–	–	–
Cc1ccc(C)c(-c2c[nH]c(NC(=O)c3ccc(S(=O)(=O)N4CCCCC4)cc3)n2)c1 [Compound 18a, N-(4-(2,5-dimethylphenyl)-1H-imidazol-2-yl)-4-(piperidin-1-ylsulfonyl)benzamide]	97.3%	99.3%	none of these molecules that replaced the thiazole functionality were active	142.21%	50.69%	–	–	–
Cc1ccc(C)c(-c2cccc(NC(=O)c3ccc(S(=O)(=O)N4CCCCC4)cc3)n2)c1 [Compound 18b, N-(6-(2,5-dimethylphenyl)pyridin-2-yl)-4-(piperidin-1-ylsulfonyl)benzamide]	–	99.6%	none of these molecules that replaced the thiazole functionality were active	146.10%	93.89%	–	–	–
Cc1ccc(C)c(-c2ccc(NC(=O)c3ccc(S(=O)(=O)N4CCCCC4)cc3)nc2)c1 [Compound 18c, N-(5-(2,5-dimethylphenyl)pyridin-2-yl)-4-(piperidin-1-ylsulfonyl)benzamide]	97.9%	98.3%	none of these molecules that replaced the thiazole functionality were active	73.65%	92.06%	–	–	–
Cc1ccc(C)c(-c2ccc(NC(=O)c3ccc(S(=O)(=O)N4CCCCC4)cc3)cn2)c1 [Compound 18d, N-(6-(2,5-dimethylphenyl)pyridin-3-yl)-4-(piperidin-1-ylsulfonyl)benzamide]	97.2%	98.2%	none of these molecules that replaced the thiazole functionality were active	58.39%	95.35%	–	–	–
CCN(CC)c1sc(NC(=O)c2ccc(S(=O)(=O)N3CCCCC3)cc2)nc1-c1cc(C)ccc1C [Compound 18g, N-(5-(diethylamino)-4-(2,5-dimethylphenyl)thiazol-2-yl)-4-(piperidin-1-ylsulfonyl)benzamide]	98.1%	98%	completely inactive	92.64%	94.30%	–	–	–
Cc1ccc(C)c(-c2nc(NC(=O)c3ccc(S(=O)(=O)N4CCCCC4)cc3)sc2N2CCCCC2)c1 [Compound 18h, N-(4-(2,5-dimethylphenyl)-5-(piperidin-1-yl)thiazol-2-yl)-4-(piperidin-1-ylsulfonyl)benzamide]	99.9%	99.2%	completely inactive	99.96%	89.45%	–	–	–
Cc1ccc(C)c(-c2nc(NC(=O)c3ccc(S(=O)(=O)N4CCCCC4)cc3)sc2-c2ccco2)c1 [Compound 18j, N-(4-(2,5-dimethylphenyl)-5-(furan-2-yl)thiazol-2-yl)-4-(piperidin-1-ylsulfonyl)benzamide]	102%	100%	completely inactive	160.49%	107.56%	–	–	–
CCSc1sc(NC(=O)c2ccc(S(=O)(=O)N3CCCCC3)cc2)nc1-c1cc(C)ccc1C [Compound 18k, N-(4-(2,5-dimethylphenyl)-5-(ethylthio)thiazo-2-yl)-4-(piperidin-1-ylsulfonyl)benzamide]	–	–	completely inactive	167.51%	111.74%	104.47%	100.75%	–
Cc1ccc(C)c(-c2nc(NC(=O)c3ccc(S(=O)(=O)N4CCCCC4)cc3)sc2C)c1 [Compound 18m, N-(4-(2,5-dimethylphenyl)-5-methylthiazol-2-yl)-4-(piperidin-1-ylsulfonyl)benzamide]	179%	159%	–	186.92%	96.90%	–	–	–
Cc1ccc(C)c(-c2nc(NC(=O)c3ccc(S(=O)(=O)N4CCCCC4)cc3)sc2Br)c1 [Compound 18n, N-(5-bromo-4-(2,5-dimethylphenyl)thiazol-2-yl)-4-(piperidin-1-ylsulfonyl)benzamide]	198%	133%	–	154.54%	84.46%	–	–	–
C#Cc1sc(NC(=O)c2ccc(S(=O)(=O)N3CCCCC3)cc2)nc1-c1cc(C)ccc1C [Compound 18o, N-(4-(2,5-dimethylphenyl)-5-ethynylthiazol-2-yl)-4-(piperidin-1-ylsulfonyl)benzamide]	153%	118%	weak activity	101.71%	111.27%	–	–	–
CCC#Cc1sc(NC(=O)c2ccc(S(=O)(=O)N3CCCCC3)cc2)nc1-c1cc(C)ccc1C [Compound 18p, N-(5-(but-1-yn-1-yl)-4-(2,5-dimethylphenyl)thiazol-2-yl)-4-(piperidin-1-ylsulfonyl)benzamide]	192%	291%	–	210.21%	120.17%	–	–	very potent
CCCC#Cc1sc(NC(=O)c2ccc(S(=O)(=O)N3CCCCC3)cc2)nc1-c1cc(C)ccc1C [Compound 18q, N-(4-(2,5-dimethylphenyl)-5-(pent-1-yn-1-yl)thiazol-2-yl)-4-(piperidin-1-ylsulfonyl)benzamide]	242%	393%	most potent	215.78%	105.84%	–	–	very potent
CCCCc1sc(NC(=O)c2ccc(S(=O)(=O)N3CCCCC3)cc2)nc1-c1cc(C)ccc1C [Compound 18s, N-(5-butyl-4-(2,5-dimethylphenyl)thiazol-2-yl)-4-(piperidin-1-ylsulfonyl)benzamide]	124%	116%	retained activity	176.96%	141.98%	–	–	–
